Reference: patent US20250074892A1, “CARBONYL BRIDGED HETEROCYCLIC COMPOUND, AND COMPOSITION AND APPLICATION THEREOF” (BEIJING SCITECH-MQ PHARMACEUTICALS LIMITED, priority 2022, published 2025)

Molecular target: T1, RIPK1 (Homo sapiens, UniProt Q13546)
T1 construct: intracellular RIPK1 and its phosphorylation during the process of inducing programmed necrosis of HT29 cells; endogenous in cells; host or cells: HT29 cells
T1 sequence (Q13546 1-671): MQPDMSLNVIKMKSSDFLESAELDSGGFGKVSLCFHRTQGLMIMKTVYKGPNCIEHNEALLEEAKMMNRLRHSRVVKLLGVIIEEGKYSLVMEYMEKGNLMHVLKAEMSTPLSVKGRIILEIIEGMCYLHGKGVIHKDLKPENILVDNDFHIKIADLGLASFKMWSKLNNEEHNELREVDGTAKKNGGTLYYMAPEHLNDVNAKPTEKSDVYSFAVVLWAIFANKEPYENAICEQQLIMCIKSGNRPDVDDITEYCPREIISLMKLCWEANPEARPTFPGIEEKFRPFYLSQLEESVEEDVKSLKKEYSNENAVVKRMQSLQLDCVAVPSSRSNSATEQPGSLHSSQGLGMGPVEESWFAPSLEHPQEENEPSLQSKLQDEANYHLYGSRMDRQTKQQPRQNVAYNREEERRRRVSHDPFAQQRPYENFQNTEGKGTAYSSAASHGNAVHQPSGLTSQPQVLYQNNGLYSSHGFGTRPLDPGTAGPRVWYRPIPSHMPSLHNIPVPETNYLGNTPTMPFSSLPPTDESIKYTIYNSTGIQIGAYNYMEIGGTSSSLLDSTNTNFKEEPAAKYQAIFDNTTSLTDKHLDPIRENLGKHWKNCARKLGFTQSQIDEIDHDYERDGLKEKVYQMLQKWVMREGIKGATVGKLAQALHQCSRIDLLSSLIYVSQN
Experiment: Western Blot detection of inhibition of RIPK1 phosphorylation in HT29 cells
Format: cell-based
Conditions: Z-VAD-FMK/TNF-α/AT-406 induction, 7 hours
Description: In this assay, Western blot was used to detect the effect of the test compound on intracellular RIPK1 and its phosphorylation during the process of inducing programmed necrosis of HT29 cells to verify the inhibitory effect of the compound on RIPK1 phosphorylation.
a) HT29 cells in good condition were collected, resuspended in McCoy's 5A complete medium and counted. The cells were seeded in a 12-well plate at a cell density of 1×10 6/1 mL/well, and placed in a 37° C. cell culture incubator overnight.
b) Z-VAD-FMK (at final concentration of 20 μM) was added to the above 12-well plate. After 30 minutes, the inducer (where the final concentration of TNF-α was 20 ng/mL, and the final concentration of AT-406 was 100 nM), and the test compound of different concentrations was then added, and incubated in a cell incubator at 37° C. for 7 hours.
c) Preparation of complete lysate: A tube of aliquoted RIPA lysate was thawed, and then phosphatase inhibitor and Roche protease inhibitor were added respectively (phosphatase inhibitor: RIPA=1:100; Roche protease inhibitor: RIPA=4:100); the mixture was placed on ice for later use; […]
g) The BCA kit was used for detection and the protein concentration was calculated; […]
7. […] The membrane was cut according to the molecular weight of the protein to be detected based on the marker band indication. […]

SMILES: O=C(C1CCN(c2cc(-c3cc(OCCCO)ccc3F)ccn2)CC1)N1N=CC[C@H]1c1cc(F)cc(F)c1 (racemic) [Example 40]
- effect on RIPK1 total protein: no obvious inhibitory effect on RIPK1
- inhibition of RIPK1 phosphorylation (Western Blot, ratio to total RIPK1): directly inhibits the phosphorylation activity of RIPK1 and shows a dose-dependent relationship
